# Measurements: patent US20230159510A1, “NOVEL PRMT5 INHIBITORS” (AMGEN INC., priority 2020, published 2023)
# Where two headings read alike, the source gives them in different places.
# Assays:
# HCT116 WT cells = assay: HCT116 proliferation assay, WT cells (CellTiter-Glo, 6 days); assay type: cell-based; details: Homo sapiens, HCT-116, 144 h, read-out: Prolif_HCT116-WT IC50
# Summary of the method: (§1)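 RPMI 1640/10% FBS; overnight attachment at 37° C, 5% CO2; 8–9-pt 1:3 titration, top 1 or 10 µM; DMSO ctrl; luminescence readout.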
# HCT116 MTAP null cells = assay: HCT116 proliferation assay, MTAP null cells (CellTiter-Glo, 6 days); assay type: cell-based; details: 144 h, read-out: Protif_ HCT116-MTAP null IC50
# Summary of the method: as §1
# PRMT5/MEP50 = PRMT5/MEP50 (Homo sapiens, UniProt O14744); assay: MTase-Glo methyl transferase assay, Method A (Histone H4 peptide, 1 µM MTA, 24 h pre-incubation); assay type: biochemical; parameters: made in house; details: read-out: PRMT5 MTase Glo Ki (nM, Meth. A)
# PRMT5/MEP50, sequence (O14744 whole entry): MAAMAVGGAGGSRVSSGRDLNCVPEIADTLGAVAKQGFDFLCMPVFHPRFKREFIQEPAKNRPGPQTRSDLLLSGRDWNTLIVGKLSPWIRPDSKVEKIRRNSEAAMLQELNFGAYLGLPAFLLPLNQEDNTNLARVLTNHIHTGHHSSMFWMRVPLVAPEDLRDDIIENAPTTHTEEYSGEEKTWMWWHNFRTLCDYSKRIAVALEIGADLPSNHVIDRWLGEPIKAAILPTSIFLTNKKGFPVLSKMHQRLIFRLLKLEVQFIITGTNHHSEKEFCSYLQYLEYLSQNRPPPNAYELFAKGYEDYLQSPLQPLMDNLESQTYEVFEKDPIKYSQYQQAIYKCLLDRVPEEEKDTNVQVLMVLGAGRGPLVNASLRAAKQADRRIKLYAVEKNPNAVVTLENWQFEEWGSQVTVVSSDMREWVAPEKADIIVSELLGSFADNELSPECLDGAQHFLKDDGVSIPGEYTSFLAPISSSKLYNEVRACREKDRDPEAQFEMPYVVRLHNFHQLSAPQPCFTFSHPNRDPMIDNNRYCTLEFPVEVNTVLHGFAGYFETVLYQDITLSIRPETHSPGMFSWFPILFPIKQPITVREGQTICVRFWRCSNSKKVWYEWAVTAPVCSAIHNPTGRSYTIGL
# PRMT5/MEP50, sequence (Q9BQA1 whole entry partner): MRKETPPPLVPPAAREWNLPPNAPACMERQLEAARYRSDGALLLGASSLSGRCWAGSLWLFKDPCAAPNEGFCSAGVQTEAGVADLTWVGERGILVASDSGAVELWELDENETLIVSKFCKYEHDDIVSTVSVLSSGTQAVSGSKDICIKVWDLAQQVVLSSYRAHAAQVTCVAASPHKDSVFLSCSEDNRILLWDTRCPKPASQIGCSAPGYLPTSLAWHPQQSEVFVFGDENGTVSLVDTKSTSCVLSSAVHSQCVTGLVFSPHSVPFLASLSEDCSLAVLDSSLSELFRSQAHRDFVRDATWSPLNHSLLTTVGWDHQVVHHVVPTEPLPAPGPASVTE
# Description: Method A: The PRMT5 inhibitory activity of test compounds was determined using the MTase-Glo™ assay (Promega), which monitors the product (S-adenosyl homocysteine or SAH) of methyltransferase reactions. The PRMT5 MTase-Glo assay was conducted in a 384-well white ProxiPlate (PerkinElmer) in a total volume of 12 µL. The PRMT5 enzymatic reaction (in 4 µL) contained 10 nM PRMT5/MEP50 (produced at Amgen), 5 µM S-adenosyl methionine (SAM, Promega), 1 µM Histone H4 (1-21)-Lys(Biotin) (Anaspec), 1 µM 5′-methylthioadenosine (MTA, Sigma) and two-fold serially diluted compounds in a reaction buffer of 50 mM Tris (pH 8.0), 50 mM NaCl, 0.01% Tween 20, 0.01% BSA, and 1 mM DTT. Test compounds were pre-incubated with PRMT5/MEP50, SAM, and MTA for 24 hours before addition of Histone H4 peptide to initiate the PRMT5 reaction. The reaction was allowed to proceed for 2 hours at room temperature and was then terminated by addition of 2 µL of 3X MTase-Glo™ Reagent (Promega) and 150 µM EPZ015666 (Sigma). After a 30-minute incubation at room temperature, 6 µL of MTase-Glo™ Detection Solution (Promega) was added and the plate was incubated at room temperature for an additional 30 minutes. The light signal corresponding to the amount of SAH produced by the PRMT5 reaction was subsequently measured using an Envision multimode reader (PerkinElmer). IC50 and KI values were obtained by analyzing dose-response curves using Genedata Screener (Genedata).
IC50 (HCT116 WT cells) [nM],IC50 (HCT116 MTAP null cells; HCT116-MTAP null) [nM],Ki (PRMT5/MEP50) [nM],SMILES,IC50 (HCT116 MTAP null cells) [nM]
1280,35,0.1,"Cc1cc2cc(C(=O)N(Cc3ccc(C(F)(F)F)nn3)[C@H](C)c3ncccn3)ccc2nc1N (single isomer, unassigned) [Example 488]",–
> 10000,151,0.33,"C[C@H](c1ncccn1)N(Cc1ccc(C#N)cn1)C(=O)c1ccc2nc(N)c(Br)cc2c1 [Example 417, 2-amino-3-bromo-N-((5-cyano-2-pyridinyl)methyl)-N-((1R)-1-(2-pyrimidinyl)ethyl)-6-quinolinecarboxamide]",–
4240,258,1.69,"COC[C@@H](c1ccccn1)N(Cc1ccc(C(F)(F)F)cn1)C(=O)c1ccc2nc(N)c(C)cc2c1 (single isomer, unassigned) [Example 529]",–
8970,194,0.33,"C[C@H](c1ncccn1)N(Cc1ccc(C(F)F)cn1)C(=O)c1ccc2nc(N)c(Cl)cc2c1 [Example 381, 2-amino-3-chloro-N-((5-(difluoromethyl)-2-pyridinyl)methyl)-N-((1R)-1-(2-pyrimidinyl)ethyl)-6-quinolinecarboxamide]",–
490,39,0.54,"Cc1cc2cc(C(=O)N(Cc3ccc(Cl)cn3)[C@H](C)c3ncccn3)c(F)cc2nc1N [Example 415, 2-amino-N-((5-chloro-2-pyridinyl)methyl)-7-fluoro-3-methyl-N-((1R)-1-(2-pyrimidinyl)ethyl)-6-quinolinecarboxamide]",–
1800,73,0.1,"Cc1cc2cc(C(=O)N(Cc3ccc(C(F)(F)F)cn3)Cc3c(F)cccc3F)ccc2nc1N [Example 344, 2-amino-N-(2,6-difluorobenzyl)-3-methyl-N-((5-(trifluoromethyl)-2-pyridinyl)methyl)-6-quinolinecarboxamide]",–
> 10000,964,0.47,"C[C@H](c1ncccn1)N(Cc1ccc(OC2COC2)cn1)C(=O)c1cnc2nc(N)c(Br)cc2c1 [Example 426, 7-amino-6-bromo-N-((5-(3-oxetanyloxy)-2-pyridinyl)methyl)-N-((1R)-1-(2-pyrimidinyl)ethyl)-1,8-naphthyridine-3-carboxamide]",–
3280,66,0.08,"C[C@H](c1nccs1)N(Cc1ccc(Br)nn1)C(=O)c1ccc2nc(N)c(Br)cc2c1 [Example 435, 2-amino-3-bromo-N-((6-bromo-3-pyridazinyl)methyl)-N-((1R)-1-(1,3-thiazol-2-yl)ethyl)-6-quinolinecarboxamide]",–
> 10000,732,0.68,"Cc1cc2cc(C(=O)N(Cc3ccc(C(F)(F)F)cn3)[C@H](C)c3cnccn3)cnc2nc1N [Example 538, 7-amino-6-methyl-N-((1R)-1-(2-pyrazinyl)ethyl)-N-((5-(trifluoromethyl)-2-pyridinyl)methyl)-1,8-naphthyridine-3-carboxamide]",–
3680,188,0.08,"Cc1cc2cc(C(=O)N(Cc3ccc(C(F)(F)F)cn3)[C@H](C)c3ccc(Cl)cn3)ccc2nc1N [Example 428, 2-amino-N-((1R)-1-(5-chloro-2-pyridinyl)ethyl)-3-methyl-N-((5-(trifluoromethyl)-2-pyridinyl)methyl)-6-quinolinecarboxamide]",–
8640,304,0.35,"Cc1cc2cc(C(=O)N(Cc3ccc(C#N)cn3)Cc3ncccc3F)ccc2nc1N [Example 327, 2-amino-N-((5-cyano-2-pyridinyl)methyl)-N-((3-fluoro-2-pyridinyl)methyl)-3-methyl-6-quinolinecarboxamide]",–
> 10000,505,1.39,"Cc1cc2cc(C(=O)N(Cc3ccc(Cl)cn3)Cc3ncccn3)ccc2nc1N [Example 340, 2-amino-N-((5-chloro-2-pyridinyl)methyl)-3-methyl-N-(2-pyrimidinylmethyl)-6-quinolinecarboxamide]",–
4800,165,0.01,"Cc1cc2cc(C(=O)N(Cc3ncc(C(F)(F)F)cc3F)[C@H](C)c3ncccc3F)ccc2nc1N [Example 391, 2-amino-N-((1R)-1-(3-fluoro-2-pyridinyl)ethyl)-N-((3-fluoro-5-(trifluoromethyl)-2-pyridinyl)methyl)-3-methyl-6-quinolinecarboxamide]",–
720,27,0.002,"Cc1cc2cc(C(=O)N(Cc3ccc(C4=CCOCC4)nn3)[C@H](C)c3ncccn3)ccc2nc1N [Example 333, 2-amino-N-((6-(3,6-dihydro-2H-pyran-4-yl)-3-pyridazinyl)methyl)-3-methyl-N-((1R)-1-(2-pyrimidinyl)ethyl)-6-quinolinecarboxamide]",–
232,13,0.02,"Cc1cc2cc(C(=O)N(Cc3ccc(C(F)(F)F)cn3)[C@@H]3CCOc4ccc(F)nc43)ccc2nc1N (single isomer, unassigned) [Example 451]",–
634,21,0.14,"COC(=O)N1CC=C(c2ccc(CN(C(=O)c3ccc4nc(N)c(C)cc4c3)[C@H](C)c3ncccn3)nc2)CC1 [Example 551, methyl 6-((((2-amino-3-methyl-6-quinolinyl)carbonyl)((1R)-1-(2-pyrimidinyl)ethyl)amino)methyl)-3’,6′-dihydro[3,4′-bipyridine]-1′(2′H)-carboxylate]",–
> 10000,391,0.42,"Cc1cc2cc(C(=O)N(Cc3ccc(C#N)cn3)[C@@H]3CCC[C@H]3O)ccc2nc1N [Example 365, 2-amino-N-((5-cyanopyridin-2-yl)methyl)-N-((1R,2R)-2-hydroxycyclopentyl)-3-methylquinoline-6-carboxamide]",–
851,47,0.11,"Cc1cc2cc(C(=O)N(Cc3ccc(C(F)(F)F)nn3)[C@@H](c3ncccn3)C3CC3)ccc2nc1N (single isomer, unassigned) [Example 518]",–
> 10000,344,1.19,"Cc1cc2cc(C(=O)N(Cc3cncc(Cl)c3)Cc3ccc(C(F)(F)F)cn3)ccc2nc1N [Example 439, 2-amino-N-((5-chloro-3-pyridinyl)methyl)-3-methyl-N-((5-(trifluoromethyl)-2-pyridinyl)methyl)-6-quinolinecarboxamide]",–
960,41,0.05,"Cc1cc2cc(C(=O)N(Cc3ccc(Br)cn3)[C@H](C)c3ncccc3F)ccc2nc1N [Example 400, 2-amino-N-((5-bromo-2-pyridinyl)methyl)-N-((1R)-1-(3-fluoro-2-pyridinyl)ethyl)-3-methyl-6-quinolinecarboxamide]",–
> 10000,360,0.2,"C[C@H](c1ncccn1)N(Cc1ccc(C(F)(F)F)cn1)C(=O)c1cc2cc(Cl)c(N)nc2cn1 [Example 422, 2-amino-3-chloro-N-((1R)-1-(2-pyrimidinyl)ethyl)-N-((5-(trifluoromethyl)-2-pyridinyl)methyl)-1,7-naphthyridine-6-carboxamide]",–
> 10000,623,0.2,"Cc1cc2cc(C(=O)N(Cc3ccc(C(=O)N(C)C)cn3)Cc3ncccc3F)ccc2nc1N [Example 560, 2-amino-N-((5-(dimethylcarbamoyl)-2-pyridinyl)methyl)-N-((3-fluoro-2-pyridinyl)methyl)-3-methyl-6-quinolinecarboxamide]",–
> 10000,568,0.59,"C#Cc1cc2cc(C(=O)N(Cc3ccc(C(F)(F)F)cn3)[C@H](C)c3ncccc3F)cnc2nc1N [Example 543, (R)-7-amino-6-ethynyl-N-(1-(3-fluoropyridin-2-yl)ethyl)-N-((5-(trifluoromethyl)pyridin-2-yl)methyl)-1,8-naphthyridine-3-carboxamide]",–
2460,106,0.11,"Cc1cc2cc(C(=O)N(Cc3ccc(C(F)(F)F)cn3)[C@@H]3CCC[C@H]3O)ccc2nc1N [Example 362, 2-amino-N-((1R,2R)-2-hydroxycyclopentyl)-3-methyl-N-((5-(trifluoromethyl)-2-pyridinyl)methyl)-6-quinolinecarboxamide]",–

SMILES,IC50 (HCT116 WT cells) [nM],IC50 (HCT116 MTAP null cells; HCT116-MTAP null) [nM],Ki (PRMT5/MEP50) [nM],IC50 (HCT116 MTAP null cells) [nM]
"Cc1cc2cc(C(=O)N(Cc3ccc(C(F)(F)F)cn3)CC(C)C)c(F)cc2nc1N [Example 314, 2-amino-7-fluoro-3-methyl-N-(2-methylpropyl)-N-((5-(trifluoromethyl)-2-pyridinyl)methyl)-6-quinolinecarboxamide]",5130,–,0.35,218
